Source: patent US20120108501A1, “Protease Inhibitors” (priority 2009, published 2012)
Counter-ions that a name gives are not always drawn. Like-named read-outs stand apart in the source and are kept apart here.

Assays:
[1] = Pharmacokinetics of PEGylated protease inhibitor prodrugs in rats; type: in vivo, male Sprague-Dawley rats; design: AUCall / AUC: concentration or dose not given beside the values; settings: prodrug in plasma; for AUCall / Cmax / AUC: mean ± SD; for half-life: read-out: t½(z) (converted)
Method: Pharmacokinetic analysis of protease inhibitors described herein was conducted. To evaluate the pharmacokinetics of PEGylated protease inhibitor conjugates with releasable lipophilic attachments, test compounds were administered to male Sprague-Dawley rats.
At various times following test article administration, serial blood samples were collected from indwelling jugular vein catheters and transferred to micro-tubes containing 7.5 μL of 20% w/v K2EDTA as an anticoagulant. Following processing of the blood samples to plasma (10 minutes at 10000 rpm, Centrifuge Model: Kubota 3500), plasma concentrations of the test article or corresponding PEGylated molecule released from the test article was measured using LC-MS/MS methods. Pharmacokinetic parameters were estimated using noncompartmental methods.
Table 3 presents a summary of pharmacokinetic parameters of PEGylated protease inhibitor prodrugs, wherein Cmax is the maximum (peak) concentration, AUCall represents the area under the concentration-time curve from zero to time of last concentration value, T½ is half life, and MRTlast is the mean residence time to last observable concentration

[2] = Pharmacokinetics of released PEGylated protease inhibitor following P.O. administration of prodrugs in rats; type: in vivo, male Sprague-Dawley rats; design: AUCall Mean: concentration or dose not given beside the values; settings: rats (n = 4-5)
Procedure, shortened: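 Prodrugs given orally to male Sprague-Dawley rats, with serial blood via jugular catheter into K2EDTA. Plasma levels of test article or released PEGylated inhibitor measured by LC-MS/MS. PK parameters from noncompartmental analysis.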

[3] = mPEG6-atazanavir in plasma after PO administration of mPEG6-ATV or of the listed prodrug
[4] = mPEG3-atazanavir in plasma after PO administration of mPEG3-ATV or of the listed prodrug
[5] = mPEG5-atazanavir in plasma after PO administration of mPEG5-ATV or of the listed prodrug
[6] = male, Sprague-Dawley, rat, in vivo
[7] = male, Sprague-Dawley, rat, in vivo, read-out: Cmax

Molecule	MRTlast [1] [h]	t½(z) [1] [h]	Cmin(24 hr) ([1]; 24 hr)	AUCall [1] [ng·h/mL]	Cmax [1] [ng/mL]	AUCall Mean [2, 4] [ng·h/mL]	Cmax Mean [2, 4] [ng/mL]	MRT last Mean [2, 4] [h]	Tmax* Median [2, 4] [h]	further results
CCOC(C)OC(CN(Cc1ccc(-c2ccccn2)cc1)NC(=O)C(NC(=O)OC)C(C)(C)C)C(Cc1ccccc1)NC(=O)C(NC(=O)OCCOCCOCCOCCOCCOCCOC)C(C)(C)C (mixture of isomers) [1-ethoxyethoxy-mPEG6-Atazanivir, ethoxy ethoxy mPEG6-atazanavir]	2.17 ± 0.340	2.45 ± 0.630	0.354 ± 0.410 ng/mL	2200 ± 2000	630 ± 550					AUCall Mean [2, 3]: 137 ng·h/mL; Cmax Mean [2, 3]: 28.8 ng/mL; MRT last Mean [2, 3]: 4.33 h; Tmax Median [2, 3]: 1.50 h
COCCOCCOCCOC(=O)NC(C(=O)NC(Cc1ccccc1)C(CN(Cc1ccc(-c2ccccn2)cc1)NC(=O)C(NC(=O)OC)C(C)(C)C)OC(=O)C(N)CC(C)C)C(C)(C)C.Cl [mono-mPEG3-Atazanavir-L-Leucine, mPEG3-Atazanavir-L-Leucine]	2.73 ± 0.912	3.33 ± 0.958		1930 ± 1170	470 ± 179	347	66.0	4.14	0.750	
COCCOCCOCCOC(=O)NC(C(=O)NC(Cc1ccccc1)C(CN(Cc1ccc(-c2ccccn2)cc1)NC(=O)C(NC(=O)OC)C(C)(C)C)OC(=O)COCCOC(=O)C(N)Cc1ccccc1)C(C)(C)C.Cl (centres unmarked) [mPEG3-Atazanavir-CME-phenylalanine HCl, mPEG3-atazanavir-CME-phenylalanine]	2.36 ± 3.57			10.2 ± 8.7	7.98 ± 6.06	99.5	4.48	18.5	6.00	
COCCOCCOCCOC(=O)NC(C(=O)NC(Cc1ccccc1)C(CN(Cc1ccc(-c2ccccn2)cc1)NC(=O)C(NC(=O)OC)C(C)(C)C)OC(=O)CCCC(=O)O)C(C)(C)C (centres unmarked) [mPEG3-Atazanavir-glutaric acid]	8.23 ± 3.48	7.69 ± 2.54	2.68 ± 1.51 ng/mL	351 ± 50.2	61.3 ± 52.7	53.8		19.5	24.0	
COCCOCCOCCOC(=O)N[C@H](C(=O)N[C@@H](Cc1ccccc1)[C@H](CN(Cc1ccc(-c2ccccn2)cc1)NC(=O)[C@@H](NC(=O)OC)C(C)(C)C)OCOC)C(C)(C)C [mPEG3-Atazanavir-methyl methyl ether, mPEG3-Atazanavir Methyl Methyl Ether]	3.00 ± 0.350	4.03 ± 1.33	6.52 ± 3.57 ng/mL	7740 ± 935	1680 ± 150	110	23.0	3.26	1.00	
COCCOCCOCCOCCOCCOC(=O)N[C@H](C(=O)N[C@@H](Cc1ccccc1)[C@H](CN(Cc1ccc(-c2ccccn2)cc1)NC(=O)[C@@H](NC(=O)OC)C(C)(C)C)OC(=O)[C@H](Cc1ccccc1)NC(=O)[C@@H](N)Cc1ccccc1)C(C)(C)C.Cl [Phe-Phe-mPEG5-Atazanavir HCl, Phe-Phe-mPEG5-atazanavir hydrochloride]	1.49 ± 0.412	2.01		31.8 ± 13.7	17.9 ± 9.09					AUCall Mean [2, 5]: 94.3 ng·h/mL; Cmax Mean [2, 5]: 12.9 ng/mL; MRT last Mean [2, 5]: 9.22 h; Tmax Median [2, 5]: 0.750 h
COCCOCCOCCOCCOCCOC(=O)NC(C(=O)NC(Cc1ccccc1)C(CN(Cc1ccc(-c2ccccn2)cc1)NC(=O)C(NC(=O)OC)C(C)(C)C)OC(=O)COCCOC(=O)C(N)Cc1ccccc1)C(C)(C)C.Cl (centres unmarked) [mPEG5-Atazanavir-CME-phenylalanine HCl]	0.25			0.0554 ± 0.096	0.222 ± 0.384					AUCall Mean [2, 5]: 54.1 ng·h/mL; Cmax Mean [2, 5]: 2.84 ng/mL; MRT last Mean [2, 5]: 14.0 h; Tmax Median [2, 5]: 12.0 h
Acetate Ester-mPEG5-Atazanavir [Acetate-OCHMe—OCO2-mPEG5-Atazanavir]	6.21 ± 3.38	4.82 ± 3.10		616 ± 156	115 ± 29.0					AUCall Mean [2, 5]: 616 ng·h/mL; Cmax Mean [2, 5]: 115 ng/mL; MRT last Mean [2, 5]: 6.21 h; Tmax Median [2, 5]: 0.750 h
COCCOCCOCCOC(=O)NC(C(=O)NC(Cc1ccccc1)C(CN(Cc1ccc(-c2ccccn2)cc1)NC(=O)C(NC(=O)OC)C(C)(C)C)OC(=O)COCCOC(=O)C(Cc1ccccc1)NC(=O)C(N)Cc1ccccc1)C(C)(C)C.Cl (centres unmarked) [mPEG3-atazanavir-CME-phe-phenylalanine, mPEG3-Atazanavir-CME-PhePhenylalanine]	0.696 ± 0.381			0.919 ± 0.968	0.772 ± 0.253	120	6.26	16.2	1.25	
CCOC(C)OC(CN(Cc1ccc(-c2ccccn2)cc1)NC(=O)C(NC(=O)OC)C(C)(C)C)C(Cc1ccccc1)NC(=O)C(NC(=O)OCCOCCOCCOCCOCCOC)C(C)(C)C (mixture of isomers) [1-ethoxyethoxy-mPEG5-Atazanivir, ethoxy ethoxy mPEG5-atazanavir]	1.80 ± 0.060	2.14 ± 1.85	0.208 ± 0.416 ng/mL	4960 ± 1730	1420 ± 595					AUCall Mean [2, 5]: 329 ng·h/mL; Cmax Mean [2, 5]: 109 ng/mL; MRT last Mean [2, 5]: 1.95 h; Tmax Median [2, 5]: 1.50 h
COCCOCCOCCOC(=O)NC(C(=O)NC(Cc1ccccc1)C(CN(Cc1ccc(-c2ccccn2)cc1)NC(=O)C(NC(=O)OC)C(C)(C)C)OC(=O)CNC(=O)C(N)CC(C)C)C(C)(C)C.Cl (stereo not drawn) [Leu-Gly-mPEG3-Atazanavir, Leu-Gly-mPEG3-Atazanavir Hydrochloride]	0.597 ± 0.376			0.955 ± 1.02	0.833 ± 0.676	44.9	2.10	15.9	4.00	
COCCOCCOCCOC(=O)NC(C(=O)NC(Cc1ccccc1)C(CN(Cc1ccc(-c2ccccn2)cc1)NC(=O)C(NC(=O)OC)C(C)(C)C)OC(=O)CCCC(=O)OC1C(O)C(O)OC1C(O)CO)C(C)(C)C (centres unmarked)	1.86 ± 1.49	3.24 ± 3.26	0.177 ± 0.353 ng/mL	221 ± 57.1	167 ± 89.6	84.4	3.62	22.5	0.250	
COCCOCCOCCOC(=O)N[C@H](C(=O)N[C@@H](Cc1ccccc1)[C@H](CN(Cc1ccc(-c2ccccn2)cc1)NC(=O)[C@@H](NC(=O)OC)C(C)(C)C)OC(=O)[C@H](Cc1ccccc1)NC(=O)[C@@H](N)C(C)C)C(C)(C)C [Val-Phe-mPEG3-Atazanavir, Val-Phe-mPEG3-Atazanavir Hydrochloride]										MRT last [1, 6]: 1.68 ± 0.297 h; AUC [1, 6]: 700 ± 361 ng·h/mL; Cmax [1, 7]: 334 ± 133 ng/mL; half-life [1, 6]: 2.25 ± 1.28 h
COCCOCCOCCOCCOCCOC(=O)N[C@H](C(=O)N[C@@H](Cc1ccccc1)[C@H](CN(Cc1ccc(-c2ccccn2)cc1)NC(=O)[C@@H](NC(=O)OC)C(C)(C)C)OC(=O)[C@H](CC(C)C)NC(=O)[C@@H](N)Cc1ccccc1)C(C)(C)C [Phe-Leu-mPEG5-Atazanavir HCl, Phe-Leu-mPEG5-Atazanavir Hydrochloride]			BLQ							MRT last [1, 6]: 1.46 ± 0.396 h; AUC [1, 6]: 42.4 ± 11.6 ng·h/mL; Cmax [1, 7]: 17 ± 4.2 ng/mL; half-life [1, 6]: 1.52 h
COCCOCCOCCOCCOCCOC(=O)N[C@H](C(=O)N[C@@H](Cc1ccccc1)[C@H](CN(Cc1ccc(-c2ccccn2)cc1)NC(=O)[C@@H](NC(=O)OC)C(C)(C)C)OC(=O)CNC(=O)[C@@H](N)CC(C)C)C(C)(C)C [Leu-Gly-mPEG5-Atazanavir HCl, Leu-Gly-mPEG5-Atazanavir Hydrochloride]										MRT last [1, 6]: 2.85 ± 3.68 h; AUC [1, 6]: 1.53 ± 2.93 ng·h/mL; Cmax [1, 7]: 0.479 ± 0.572 ng/mL
COCCOCCOCCOC(=O)N[C@H](C(=O)N[C@@H](Cc1ccccc1)[C@H](CN(Cc1ccc(-c2ccccn2)cc1)NC(=O)[C@@H](NC(=O)OC)C(C)(C)C)OC(=O)[C@H](Cc1ccccc1)NC(=O)[C@@H](N)Cc1ccccc1)C(C)(C)C [Phe-Phe-mPEG3-Atazanavir, Phe-Phe-mPEG3-Atazanavir Hydrochloride]										MRT last [1, 6]: 6.27 ± 1.31 h; concentration at 24 hr ([1]; male, Sprague-Dawley, rat, in vivo, 24 hr, read-out: Cmin(24 hr)): 3.15 ± 0.946 ng/mL; AUC [1, 6]: 609 ± 157 ng·h/mL; Cmax [1, 7]: 112 ± 31.6 ng/mL; half-life [1, 6]: 8.31 ± 1.21 h
